Experimental data from PMC9775191, “A Subset Screen of the Compounds Australia Scaffold Library Identifies 7-Acylaminodibenzoxazepinones as Potent and Selective Hits for Anti-Giardia Drug Discovery” (Biomedicines, 2022).

Test system: G. duodenalis BRIS/91/HEPU/1279
Assay: Primary Giardia screen at 10 µM (live-cell imaging, automated counting)
Assay type: cell-based, Giardia duodenalis
Conditions: for % Inhibition n=1 48h / % Inhibition n=1 24h: first singlicate assay; for % Inhibition n=2 24h / % Inhibition n=2 48h: re-assessment
Summary of the method: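 Compound added to 10 μM final in medium with 0.2% DMSO, one well each; plates then held in sealed chambers at 3% O2, 5% CO2 in N2; growth imaged and counted automatically at 24 and 48 h; values normalised to vehicle wells minus media blank.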

SMILES: O=C(NCCc1ccccc1)c1ccc(Nc2nc3ccccc3n3nnnc23)cc1 [SN00784739]
- % Inhibition n=1 48h: 8.5%

SMILES: COCCNC(=O)C1(C)Cn2c(cc3ccsc32)C(=O)N1c1ccc(OC)c(OC)c1 (centres unmarked) [SN00789817]
- % Inhibition n=1 48h: 0.0%

SMILES: O=C(c1ccc(F)cc1)N1CCCN(Cc2noc(-c3ccccc3)n2)CC1 [SN00794182]
- % Inhibition n=1 48h: 33.4%

SMILES: CCOc1ccccc1CNC(=O)c1nc(C(C)C)oc1C [SN00802425]
- % Inhibition n=1 48h: 24.0%

SMILES: Cn1c(=O)c2cc(C(=O)NC3CCSC3=O)n(Cc3ccccc3)c2n(C)c1=O (centres unmarked) [SN00772623]
- % Inhibition n=1 48h: 25.0%

SMILES: O=C(c1ccoc1)N1CCC(Oc2nccnc2N2CCc3ccccc32)C1 (centres unmarked) [SN00800151]
- % Inhibition n=1 48h: 22.8%

SMILES: COc1ccc2c(c1)CCCN(C(=O)c1nnc3ccccc3c1N)C2 [SN00773025]
- % Inhibition n=1 48h: 10.7%

SMILES: O=c1n(Cc2ccc(F)cc2)nnn1-c1ccccc1 [SN00777772]
- % Inhibition n=1 48h: 48.5%

SMILES: COc1cc(NC(=O)C2CCCN(c3nc4ccccc4[nH]c3=O)C2)cc(OC)c1 (centres unmarked) [SN00790089]
- % Inhibition n=1 48h: 0.0%

SMILES: O=C(NCc1cccc(C(F)(F)F)c1)C1CCCN(c2nccnc2Oc2ccccc2)C1 (centres unmarked) [SN00797123]
- % Inhibition n=1 48h: 15.6%

SMILES: O=C(Nc1cccnc1)C1=NN(Cc2ccccc2)C(=O)CC1 [SN00779378]
- % Inhibition n=1 48h: 15.0%

SMILES: O=C(Nc1ccc(N2CCN(C3CCCCC3)C2=O)nc1)c1ccc(Cl)s1 [SN00801852]
- % Inhibition n=1 48h: 26.3%

SMILES: Cc1cc(C(=O)N2CCCN(c3cccnn3)CC2)c(C)n1C(C)C [SN00771426]
- % Inhibition n=1 48h: 0.0%

SMILES: CCc1csc(C2CCCN(C(=O)c3ccc4c(c3)OCO4)C2)n1 (centres unmarked) [SN00781524]
- % Inhibition n=1 48h: 0.0%

SMILES: Cc1ccc2nc(-c3ccc(C)c(NC(=O)c4cccnc4)c3)[nH]c2c1 [SN00787045]
- % Inhibition n=1 48h: 8.2%

SMILES: NC(=O)C1=C(Nc2ccccc2)c2ccccc2S1(=O)=O [SN00786825]
- Average % Inhibition 24h: 12.8%
- % Inhibition n=1 24h: 25.7%
- % Inhibition n=2 24h: 0.0%
- Average % Inhibition 48h: 48.5%
- % Inhibition n=1 48h: 65.7%
- % Inhibition n=2 48h: 31.3%

SMILES: CCN(CC)C(=O)c1cc(-c2cccs2)nc2cc(C)c(C)cc12 [SN00802800]
- % Inhibition n=1 48h: 16.9%

SMILES: Cc1cccc(-c2nc3sc(N4CCN(C(=O)NC(C)C)CC4)nn3c2NC(C)(C)C)c1 [SN00795313]
- % Inhibition n=1 48h: 0.0%

SMILES: Cc1ccc(NC(=O)Cn2c(=O)n(Cc3ccc4c(c3)OCO4)c(=O)c3ncccc32)cc1 [SN00789565]
- % Inhibition n=1 48h: 0.0%

SMILES: CC(C)(C)OC(=O)N1CCN(C(=O)C2CCCNC2)CC1 (centres unmarked) [SN00769730]
- % Inhibition n=1 48h: 15.1%

SMILES: Cc1sc2c(c1C)C(c1ccc(F)cc1)=NCC(=O)N2CC(=O)Nc1ccc(Cl)cc1 [SN00791866]
- % Inhibition n=1 48h: 0.0%

SMILES: Cc1ccc(-c2noc(-c3cccc(S(=O)(=O)N4CCN(c5ccc(F)cc5)CC4)c3)n2)cc1 [SN00797676]
- % Inhibition n=1 48h: 0.0%

SMILES: Cc1cc(C)n2nc(C(=O)N3CCC(CC(N)=O)CC3)nc2n1 [SN00775259]
- % Inhibition n=1 48h: 0.0%

SMILES: CN(C)CC1CN(S(=O)(=O)c2ccccc2)CC12CCOCC2 (centres unmarked) [SN00801264]
- % Inhibition n=1 48h: 0.0%

SMILES: CCCNc1ncnc2c1cnn2-c1ccc(C)cc1 [SN00794411]
- % Inhibition n=1 48h: 0.0%

SMILES: CCc1nc(CN2CCCN(C(=O)C3CCC3)CC2)cs1 [SN00777931]
- % Inhibition n=1 48h: 3.9%

SMILES: Cc1cccc(NC(=O)N2CCN(c3nc(C)cc(N4CCN(C)CC4)n3)CC2)c1 [SN00793530]
- % Inhibition n=1 48h: 17.4%

SMILES: O=C(Cc1csc2nc(-c3ccccc3)cn12)NCCc1cccs1 [SN00796222]
- % Inhibition n=1 48h: 0.0%

SMILES: CC1(c2nc(C3CC3)no2)CCCN(C(=O)CCC2CCCC2)C1 (centres unmarked) [SN00801392]
- % Inhibition n=1 48h: 3.8%

SMILES: CN1CC(c2nc3ccccc3[nH]2)CC1=O (centres unmarked) [SN00785951]
- % Inhibition n=1 48h: 0.0%

SMILES: CCc1nc(-c2cc(S(=O)(=O)N(C)c3cccc(C)c3)c(C)s2)no1 [SN00789104]
- Average % Inhibition 24h: 14.2%
- % Inhibition n=1 24h: 28.4%
- % Inhibition n=2 24h: 0.0%
- Average % Inhibition 48h: 30.8%
- % Inhibition n=1 48h: 48.8%
- % Inhibition n=2 48h: 12.8%

SMILES: O=S(=O)(c1cccc2cccnc12)N1CCc2nc(-c3ccc(F)cc3)ncc2C1 [SN00799070]
- % Inhibition n=1 48h: 3.1%

SMILES: Cc1ccc(C2=CC(c3ccccc3)n3nnnc3N2CC(=O)N2CCN(c3ccccc3)CC2)cc1 (centres unmarked) [SN00786799]
- % Inhibition n=1 48h: 34.8%

SMILES: Cn1ncc2c(=O)[nH]c(CN3CCN(c4cnccn4)CC3)nc21 [SN00807797]
- % Inhibition n=1 48h: 0.0%

SMILES: CCC1CN2C=NC(N3CCN(C(=O)CCc4ccccc4OC)CC3)=CC2=N1 (centres unmarked) [SN00800900]
- % Inhibition n=1 48h: 25.4%

SMILES: Cc1c(-c2nc(-c3cccnc3)no2)oc2ccc(S(=O)(=O)N3CCOCC3)cc12 [SN00791042]
- % Inhibition n=1 48h: 1.1%

SMILES: COc1cccc(N2CCN(C(=O)c3ccc4noc(-c5ccccc5)c4c3)CC2)c1 [SN00777397]
- Average % Inhibition 24h: 9.9%
- % Inhibition n=1 24h: 17.2%
- % Inhibition n=2 24h: 2.5%
- Average % Inhibition 48h: 28.2%
- % Inhibition n=1 48h: 56.5%
- % Inhibition n=2 48h: 0.0%

SMILES: COc1ccc(C)cc1NC(=O)Nc1c(-c2ccncc2)[nH]c2c(Cl)cccc12 [SN00795853]
- % Inhibition n=1 48h: 0.0%

SMILES: COc1ccccc1N1CCN(C(=O)c2cc(C3CC3)n[nH]2)CC1 [SN00787811]
- % Inhibition n=1 48h: 0.0%

SMILES: CN1CCN(CC2CCN(C(=O)Cc3cccc4ccccc34)CC2)CC1 [SN00783181]
- % Inhibition n=1 48h: 17.7%

SMILES: CCCN1C(=O)c2cc(C(=O)Nc3ccccc3OC)ccc2C1Nc1ccccc1OC (centres unmarked) [SN00785171]
- % Inhibition n=1 48h: 21.9%

SMILES: CCc1nc(C)c2c(C)c(C(=O)N3CCN(c4ncccn4)CC3)sc2n1 [SN00779630]
- % Inhibition n=1 48h: 22.3%

SMILES: O=S(=O)(NCCC1=CCCCC1)c1ccc(-c2cnc(C3CCCC3)o2)s1 [SN00795100]
- % Inhibition n=1 48h: 27.9%

SMILES: O=C(CCC(=O)N1CCCN(c2nc3cccnc3s2)CC1)NCCc1c[nH]c2ccccc12 [SN00795593]
- % Inhibition n=1 48h: 0.0%

SMILES: CCOCCn1c(N2CCCCC2)nc(C)cc1=O [SN00799709]
- % Inhibition n=1 48h: 33.8%

SMILES: CCN(CC)S(=O)(=O)c1ccc2[nH]cc(C(=O)NCCCN3CCCC3)c(=O)c2c1 [SN00794535]
- % Inhibition n=1 48h: 13.0%

SMILES: COc1ccc(C(=O)N2c3ccccc3NC(=O)CC2C)cc1OC (centres unmarked) [SN00777269]
- % Inhibition n=1 48h: 0.0%

SMILES: COc1ccc(N2C(=O)c3cc(-c4ccco4)nn3CC2(C)C(=O)NC(C)(C)C)cc1 (centres unmarked) [SN00787372]
- % Inhibition n=1 48h: 16.8%

SMILES: Cc1cnn(CC(C)NCc2nc(-c3ccccn3)no2)c1 (centres unmarked) [SN00782812]
- % Inhibition n=1 48h: 19.9%

SMILES: CN1C(=O)CC[C@]2(CNC(=O)C3(c4ccccc4)CC3)CCC[C@@H]12 [SN00801306]
- % Inhibition n=1 48h: 21.4%

SMILES: COc1ccc(S(=O)(=O)N2CC=C(C(=O)Nc3ccc(Cl)cc3)CC2)cc1 [SN00785473]
- % Inhibition n=1 48h: 0.0%

SMILES: CCCNC(=O)N1CCN(c2nc3ccccc3n3cccc23)CC1 [SN00793136]
- Average % Inhibition 24h: 3.9%
- % Inhibition n=1 24h: 7.8%
- % Inhibition n=2 24h: 0.0%
- Average % Inhibition 48h: 22.4%
- % Inhibition n=1 48h: 44.8%
- % Inhibition n=2 48h: 0.0%

SMILES: O=C(Cn1c(-c2ccccn2)noc1=O)C12CC3CC(CC(C3)C1)C2 [SN00781381]
- % Inhibition n=1 48h: 21.7%

SMILES: Cc1ccc(S(=O)(=O)N2CCC3(CC2)NCCN=C3NC2CCCCCC2)c(C)c1 [SN00796055]
- % Inhibition n=1 48h: 0.0%

SMILES: CCN1CCN(c2ccc(-c3nc(-c4cccc(F)c4)no3)cn2)CC1 [SN00796649]
- % Inhibition n=1 48h: 48.2%

SMILES: COc1ccc(Nc2nc(-c3nnn(-c4ccc(F)cc4F)c3C)ns2)cc1OC [SN00798157]
- Average % Inhibition 24h: 11.4%
- % Inhibition n=1 24h: 18.3%
- % Inhibition n=2 24h: 4.5%
- Average % Inhibition 48h: 26.3%
- % Inhibition n=1 48h: 52.7%
- % Inhibition n=2 48h: 0.0%

SMILES: CC1(C(=O)NC2CCCCC2)Cn2c(cc3ccccc32)C(=O)N1Cc1ccco1 (centres unmarked) [SN00787436]
- % Inhibition n=1 48h: 0.0%

SMILES: CSc1ccccc1NC(=O)C1CCN(S(C)(=O)=O)c2ccccc2O1 (centres unmarked) [SN00794287]
- % Inhibition n=1 48h: 8.2%

SMILES: Cc1sc2cc(C(=O)N3CCN(c4ccc(F)cc4)CC3)[nH]c2c1CN1CCOCC1 [SN00798508]
- % Inhibition n=1 48h: 27.9%

SMILES: CCn1cc(C(=O)Nc2ccccc2O)c(=O)c2cc(F)c(N3CCN(C(C)=O)CC3)cc21 [SN00802927]
- % Inhibition n=1 48h: 0.0%

SMILES: Cc1cc(NS(=O)(=O)c2cc(-c3[nH]ncc3C(=O)N3CCCC3)oc2C)ccc1F [SN00800668]
- % Inhibition n=1 48h: 0.0%

SMILES: COc1cccc([C@H]2C[C@@H](C(F)(F)F)n3ncc(C(=O)N4CCCCC4)c3N2)c1 (relative stereo) [SN00783803]
- % Inhibition n=1 48h: 0.0%

SMILES: CCN(CC)C(=O)CN1C(=O)CN=C(c2ccc(OC)cc2)c2c1sc1c2CCCC1 [SN00791881]
- % Inhibition n=1 48h: 0.0%

SMILES: Cc1ccc(C(=O)N2CCCN(S(C)(=O)=O)CC2)c(=O)[nH]1 [SN00807837]
- % Inhibition n=1 48h: 19.8%

SMILES: Cn1c(C2CCN(C(=O)Nc3ccccc3F)CC2)cc(=O)n2nccc12 [SN00798982]
- % Inhibition n=1 48h: 3.2%

SMILES: Cc1ccnc(Nc2nc(C)c(C(=O)NC3CC3)s2)c1 [SN00797622]
- % Inhibition n=1 48h: 13.3%

SMILES: CCOc1ccc(S(=O)(=O)Nc2cccc(-c3ccc(OC)nn3)c2)cc1 [SN00792604]
- % Inhibition n=1 48h: 10.8%

SMILES: Cc1ccc(NC(=O)CN2CC(c3ccccc3)CC2=O)c(C)c1 (centres unmarked) [SN00784704]
- % Inhibition n=1 48h: 6.2%

SMILES: Cc1ccc(NC(=O)Cn2c(C)cc(C)c(-c3nc(-c4ccc5c(c4)OCO5)no3)c2=O)cc1 [SN00792912]
- % Inhibition n=1 48h: 3.6%

SMILES: CC(C)(C)c1ccc(C(=O)N2CCC3(CC2)N=C(c2cccc(Cl)c2)C(=O)N3)cc1 [SN00792200]
- % Inhibition n=1 48h: 32.1%

SMILES: O=S(=O)(Nc1ccc(OC2CCNCC2)nc1)c1ccccc1 [SN00799991]
- % Inhibition n=1 48h: 0.0%

SMILES: CCCN1C(=O)c2c(C(=O)NCCc3ccccc3)ncn2CC1(C)C(=O)NCCC(C)C (centres unmarked) [SN00791583]
- % Inhibition n=1 48h: 9.0%

SMILES: CCc1noc(C2(NC(=O)c3cc(-c4ccccc4)n[nH]3)CCCCC2)n1 [SN00800487]
- % Inhibition n=1 48h: 0.0%
